The molecules below were run against T1, human OX2R (Homo sapiens, UniProt O43614) (assay: IPOne (IP-1 accumulation) orexin receptor agonist assay in CHO cells expressing human OX2R). Conditions: hOX2R IP-One assay, percent of mean max effect of a reference compound at 1 uM with 100% activity established by comparison to Orexin A.
T1 construct: expressed in transfected cells; host or cells: CHO (Chinese hamster ovary) cells, grown under G418 selection
T1 sequence (O43614 1-444): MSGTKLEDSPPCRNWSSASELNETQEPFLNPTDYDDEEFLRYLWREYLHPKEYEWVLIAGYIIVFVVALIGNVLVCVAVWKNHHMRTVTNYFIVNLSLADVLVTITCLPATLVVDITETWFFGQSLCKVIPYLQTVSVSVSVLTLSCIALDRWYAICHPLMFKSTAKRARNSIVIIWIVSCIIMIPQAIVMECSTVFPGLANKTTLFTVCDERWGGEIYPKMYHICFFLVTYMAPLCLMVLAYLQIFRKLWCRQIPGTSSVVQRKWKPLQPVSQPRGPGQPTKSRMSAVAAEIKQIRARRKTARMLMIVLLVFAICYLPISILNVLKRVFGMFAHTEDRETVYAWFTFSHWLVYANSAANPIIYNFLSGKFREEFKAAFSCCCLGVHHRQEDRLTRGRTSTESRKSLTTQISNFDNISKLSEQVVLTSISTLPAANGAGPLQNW
Assay type: cell-based
Text: The utility of the compounds in accordance with the present invention as orexin receptor OX1R and/or OX2R agonists may be readily determined without undue experimentation by methodology well known in the art. Both the OX1R and/or OX2R G-coupled protein receptors (GPCRs) couple through the Gαq signaling pathway, which ultimately promotes calcium mobilization via inositol triphosphate (IP3) production. The half-life of IP-3 is relatively short, being rapidly metabolized to inositol monophosphate (IP-1), which can be readily detected using a commercially available assay kit (IP-One; Cisbio; cat #621PAPEC) coupled with a cell line expressing the target receptor(s) of interest. The utility of the compounds in accordance with the present invention as orexin receptor OX1R and/or OX2R agonists may be determined utilizing this assay.
In a typical experiment, the OX1 and OX2 receptor agonist activity is determined in accordance with the following general experimental method. Chinese hamster ovary (CHO) cells expressing human OX1R and/or the human OX2R were grown in Iscove's modified DMEM containing glutaMAX™, 1% G418, 100 U/mL penicillin, 100 μg/mL streptomycin and 10% heat-inactivated qualified fetal bovine serum (FBS). The OX2R cells were seeded at 10,000 cells/well/50 μL and the OX1R cells were seeded at 20,000 cells/well/50 μL into 384-well white tissue culture plates (Greiner; cat #781080). All cell/media reagents were from GIBCO-Invitrogen Corp. The seeded cell plate(s) were incubated at 37° C. with 5% CO2 and 85% humidity for 20-24 hours. On the day of the assay, assay-ready compound plates were prepared using an acoustic liquid handler (ECHO; Labcyte), which dispensed sufficient volume of test compound stock (10 mM in DMSO) or 100% DMSO to prepare 10 point, ½-log dilutions in a final volume of 202.5 nL/well in all test wells of a 384-well diamond plate (Labcyte). Following completion of assay-ready plates, importantly, the next three steps were performed with minimal delay: 1) 20 μl of 1× stimulation buffer was added to the compound plate using a Multidrop Combi (small cassette, Thermo Fisher Scientific cat #24073290); 2) culture medium was removed from the cell plate using the Bluewasher plate washer (gentle spin; BlueCatBio); 3) 14 μl of compound/stimulation buffer mixture was added to the cell plate using a Bravo liquid handler (Agilent) prior to incubating cell plates at 37° C. with 5% CO2 and 85% humidity for 1 or 2 hours (OX1R and OX2R, respectively). During this incubation, IP-one detection reagents were prepared (38:1:1 lysis buffer:D2:AB-cryptate reagents). Six μL of mixed detection reagents were added to the cell plate using a Multidrop Combi (small cassette, Thermo Fisher Scientific cat #24073290) and incubated 60 minutes at room temperature in the dark. Fluorescence signal was detected using an Envision plate reader (Perkin Elmer) [LANCE/DELFIA Dual Enh (Em: APC 665; Ex: Cy5 620)].
For each compound, data were fit to a four parameter logistic fit (ActivityBase software) and the EC50 was reported as the inflection point of the resulting curve. Percent effect for each test compound was determined as the percentage of sample raw value/mean max effect, where the mean max effect was derived from the mean raw value of 32 control wells per assay plate (using Orexin A (cat #003-30) at 1 μM for human OX1R and a reference compound at 1 uM with 100% activity previously established by comparison to Orexin A for human OX2R). The intrinsic orexin receptor agonist activity of a compound which may be used in the present invention may be determined by these assays.

Compared with COC(=O)N1[C@@H]2CCC[C@@H]2[C@H](NS(C)(=O)=O)[C@@H]1CO[C@H]1CC[C@@H](c2cccc(F)c2)CC1 [Example 1, methyl (2R,3S,3aS,6aR)-2-((((1s,4S)-4-(3-fluorophenyl)cyclohexyl)oxy)methyl)-3-(methylsulfonamido)hexahydrocyclopenta[b]pyrrole-1(2H)-carboxylate], CNS(=O)(=O)N[C@H]1[C@H]2CCC[C@H]2N(C(=O)OC)[C@H]1CO[C@H]1CC[C@@H](c2cccc(F)c2)CC1 [Example 3, methyl (2R,3S,3aS,6aR)-2-((((1s,4S)-4-(3-fluorophenyl)cyclohexyl)oxy)methyl)-3-((N-methylsulfamoyl)amino)hexahydrocyclopenta[b]pyrrole-1(2H)-carboxylate] is lower in Emax: 101% for the first, 98% for the second.

COC(=O)N1[C@@H]2CCC[C@@H]2[C@H](NS(=O)(=O)N(C)C)[C@@H]1CO[C@H]1CC[C@@H](c2cccc(F)c2)CC1 [Example 2, methyl (2R,3S,3aS,6aR)-3-((N,N-dimethylsulfamoyl)amino)-2-((((1s,4S)-4-(3-fluorophenyl)cyclohexyl)oxy)methyl)hexahydrocyclopenta[b]pyrrole-1(2H)-carboxylate] and COC(=O)N1[C@@H]2COC[C@@H]2[C@H](NS(=O)(=O)N(C)C)[C@@H]1CO[C@H]1CC[C@@H](c2cccc(F)c2)CC1 [Example 5, methyl (2R,3S,3aS,6aS)-3-((N,N-dimethylsulfamoyl)amino)-2-((((1s,4S)-4-(3-fluorophenyl)cyclohexyl)oxy)methyl)hexahydro-1H-furo[3,4-b]pyrrole-1-carboxylate] are the same in Emax: 101% for the first, 101% for the second.

Going from COC(=O)N1[C@@H]2COC[C@@H]2[C@H](NS(C)(=O)=O)[C@@H]1CO[C@H]1CC[C@@H](c2cccc(F)c2)CC1 [Example 4, methyl (2R,3S,3aS,6aS)-2-((((1s,4S)-4-(3-fluorophenyl)cyclohexyl)oxy)methyl)-3-(methylsulfonamido)hexahydro-1H-furo[3,4-b]pyrrole-1-carboxylate] to COC(=O)N1[C@@H]2COC[C@@H]2[C@H](NS(=O)(=O)CF)[C@@H]1CO[C@H]1CC[C@@H](c2cccc(F)c2)CC1 [Example 6, methyl (2R,3S,3aS,6aS)-3-((fluoromethyl)sulfonamido)-2-((((1s,4S)-4-(3-fluorophenyl)-cyclohexyl)oxy)methyl)hexahydro-1H-furo[3,4-b]pyrrole-1-carboxylate], the Emax rises from 101% to 102%.

Going from COC(=O)N1[C@@H]2CCC[C@@H]2[C@H](NS(C)(=O)=O)[C@@H]1CO[C@H]1CC[C@@H](c2ccccc2)CC1 [Example 7, Methyl (2R,3S,3aS,6aR)-3-(methylsulfonamido)-2-((((1s,4S)-4-phenylcyclohexyl)oxy)-methyl)hexahydrocyclopenta[b]pyrrole-1(2H)-carboxylate] to COC(=O)N1[C@@H]2CC[C@@H]2[C@H](NS(C)(=O)=O)[C@@H]1CO[C@H]1CC[C@@H](c2ccccc2)CC1 [Example 11, methyl (1R,3R,4S,5S)-4-(methylsulfonamido)-3-((((1s,4S)-4-phenylcyclohexyl)oxy)methyl)-2-azabicyclo[3.2.0]heptane-2-carboxylate], the Emax rises from 101% to 103%.

First: COC(=O)N1[C@@H]2CCC[C@@H]2[C@H](NS(=O)(=O)N(C)C)[C@@H]1CO[C@H]1CC[C@@H](c2ccccc2)CC1 [Example 8, Methyl (2R,3S,3aS,6aR)-3-((N,N-dimethylsulfamoyl)amino)-2-((((1s,4S)-4-phenyl-cyclohexyl)oxy)methyl)hexahydrocyclopenta[b]pyrrole-1(2H)-carboxylate]
Second: COC(=O)N1[C@@H]2CCC[C@@H]2[C@H](NS(C)(=O)=O)[C@@H]1COC1CCN(c2ncc(F)cn2)CC1 [Example 9, Methyl (2R,3S,3aS,6aR)-2-(((1-(5-fluoropyrimidin-2-yl)piperidin-4-yl)oxy)methyl)-3-(methylsulfonamido)hexahydrocyclopenta[b]pyrrole-1(2H)-carboxylate]
The Emax of the first is higher: 98% for the first, 97% for the second.

CC(C)OC(=O)N1[C@@H]2CCC[C@@H]2[C@H](NS(C)(=O)=O)[C@@H]1COC1CCN(c2ncc(F)cn2)CC1 [Example 10, Isopropyl (2R,3S,3aS,6aR)-2-(((1-(5-fluoropyrimidin-2-yl)piperidin-4-yl)oxy)methyl)-3-(methylsulfonamido)hexahydrocyclopenta[b]pyrrole-1(2H)-carboxylate] was tested, and the Emax was 103%.

Source: patent US12497362B2, “Cyclopentapyrrole orexin receptor agonists” (Merck Sharp & Dohme LLC, priority 2020, dated 2025)
